The results in this text go back to ChEMBL document CHEMBL3046884, “Optical Resolution and Biological Activities of S-23121, a New Cereal Herbicide” (Agric Biol Chem, 1991).

The test system of this experiment is Cucumis sativus. Description: Induction of membrane damage in Cucumis sativus (cucumber) cotyledon disks assessed as compound level causing […] ethane production incubated under white light for 24 hr at 20 degC. Format: functional.

Take `C#C[C@H](C)Oc1cc(N2C(=O)C3=C(CCCC3)C2=O)c(F)cc1Cl` [(S)-S-23121]: the Activity came out at 21 nM.

For `C#C[C@@H](C)Oc1cc(N2C(=O)C3=C(CCCC3)C2=O)c(F)cc1Cl`, the Activity came to 178 nM.
